# Patent US12679838B2, “Aromatic compound and application thereof in antitumor drug” (Shanghai Zheye Biotechnology Co., Ltd., priority 2020, dated 2026)
# Where two headings read alike, the source gives them in different places.
# Experiments:
# NCI-H358 cells = test: Cell proliferation inhibitory activity, NCI-H358 (CellTiter-Glo); assay type: cell-based; conditions: for IC50: biological test 2, NCI-H358 cells, 72 hours, read-out: Cell proliferation inhibitory activity IC50 value of H358; for cell proliferation inhibitory activity, R-configuration compared with corresponding S-configuration compound (in words): H358
# Protocol: (§1) NCI-H358 cells in an exponential growth phase were digested with trypsin-EDTA and plated in a 96-well plate at 2000-3000 cells per well and incubated overnight at 37° C. with 5% CO2. A test compound was prepared as a mother liquor with DMSO, diluted with a RPMI 1640 growth medium in a concentration gradient and added to the 96-well plate and incubated for 72 hours at 37° C. in a 5% CO2 incubator. After incubation, an equal volume of CellTiter-Glo detection reagent was added to each well and incubated after shaking, and a chemiluminescence value was measured by a microplate reader, and the IC50 value for the inhibition of NCI-H358 cell proliferation was fitted and calculated by GraphPad Prism software.
# The inhibitory effect of the compounds on the proliferation activity of H358 cells was tested with reference to the method of the biological test 2, and the results were as follows:
# The inhibitory effect of the compounds on the proliferation activity of NCI-H358 cells was tested with reference to the method of the biological test 2, and the results were as follows.
# [1] = test system: NCI-H358 tumor cells xenograft; test: Pharmacodynamics test of xenograft tumor model of NCI-H358 in nude mice; assay type: in vivo, Balb/c Nude mice; conditions: 100 mg/kg; for Tumor suppression ratio (%): NCI-H358 xenograft, QD×15 days, oral gavage
# Protocol: Animal species and number: Balb/c Nude; 6 animals per group.
# Samples for testing: compound 3-2M, compound 3-16M, TM-1, TM-3, and AMG510 (obtained by purchasing).
# Test groups: blank solvent control group; compound 3-2M (100 mg/kg, QD×15 days), compound 3-16M (100 mg/kg, QD×15 days), TM-1 (100 mg/kg, QD×15 days), TM-3 (100 mg/kg, QD×15 days); and AMG510 (100 mg/kg, QD×15 days).
# Animal model establishment: NCI-H358 tumor cells at logarithmic phase were cultured and collected in vitro, and inoculated subcutaneously on the right side of the back of nude mice at a quantity of 5×10^6 cells/each, and the tumor-bearing nude mice were randomly grouped when the tumor volume grew to 150-300 mm^3. Subsequently, each group of animals was administered and the day of the first administration was defined as day 1 of the test.
# (§2) Administration route and frequency: oral gavage; and once a day.
# (§3) General state observation: observation time and frequency: once a day; observation index or content: including, but is not limited to local administration, appearance and signs, general behavioral activities, mental status, death and other abnormal manifestations of the animals. The animals were euthanized at the end of the test.
# (§4) Tumor volume calculation: V=½×long diameter× short diameter^2 (mm^3). Tumor growth inhibition ratio TGI (%) was used to evaluate the tumor suppressive efficacy of the compounds. TGI (%)=[1-(mean tumor volume at the end of administration of the treatment group−mean tumor volume at the beginning of administration of the treatment group)/(mean tumor volume at the end of administration of the control group−mean tumor volume at the beginning of administration of the control group)]×100%.
# NCI-H358 = test: Cell proliferation inhibitory activity of NCI-H358, 3D model test (agarose colony formation); assay type: cell-based; conditions: for IC50: Homo sapiens, NCI-H358, agarose gel, colony formation, NBT staining
# Protocol: 100 μl of high concentration agarose gel was spread in a 96-well plate as a bottom agarose gel layer; low concentration agarose and growth medium containing cells were mixed and spread on the bottom agarose gel layer, cooled and solidified and incubated overnight at 37° C.; a test compound was prepared into a mother liquor with DMSO, diluted with a RPMI 1640 growth medium in a concentration gradient, and the gradient diluted solution of the compound to be tested with different concentrations was added into 96 wells containing upper agarose gel cells, and solvent control wells were set and placed in a carbon dioxide incubator for culture. During the period, the drug-containing medium was changed to observe the cell growth. After the culture, the cells were stained with NBT, the number of colony formation was counted, and the IC50 value of the compound inhibiting cell proliferation was obtained.
# hERG potassium channel = target: T1, hERG potassium channel (Homo sapiens, UniProt Q12809); test: hERG potassium channels, electrophysiological manual patch clamp; assay type: cell-based
# T1 construct: expressed in transfected cells; host or cells: HEK-293
# T1 sequence (Q12809 whole entry): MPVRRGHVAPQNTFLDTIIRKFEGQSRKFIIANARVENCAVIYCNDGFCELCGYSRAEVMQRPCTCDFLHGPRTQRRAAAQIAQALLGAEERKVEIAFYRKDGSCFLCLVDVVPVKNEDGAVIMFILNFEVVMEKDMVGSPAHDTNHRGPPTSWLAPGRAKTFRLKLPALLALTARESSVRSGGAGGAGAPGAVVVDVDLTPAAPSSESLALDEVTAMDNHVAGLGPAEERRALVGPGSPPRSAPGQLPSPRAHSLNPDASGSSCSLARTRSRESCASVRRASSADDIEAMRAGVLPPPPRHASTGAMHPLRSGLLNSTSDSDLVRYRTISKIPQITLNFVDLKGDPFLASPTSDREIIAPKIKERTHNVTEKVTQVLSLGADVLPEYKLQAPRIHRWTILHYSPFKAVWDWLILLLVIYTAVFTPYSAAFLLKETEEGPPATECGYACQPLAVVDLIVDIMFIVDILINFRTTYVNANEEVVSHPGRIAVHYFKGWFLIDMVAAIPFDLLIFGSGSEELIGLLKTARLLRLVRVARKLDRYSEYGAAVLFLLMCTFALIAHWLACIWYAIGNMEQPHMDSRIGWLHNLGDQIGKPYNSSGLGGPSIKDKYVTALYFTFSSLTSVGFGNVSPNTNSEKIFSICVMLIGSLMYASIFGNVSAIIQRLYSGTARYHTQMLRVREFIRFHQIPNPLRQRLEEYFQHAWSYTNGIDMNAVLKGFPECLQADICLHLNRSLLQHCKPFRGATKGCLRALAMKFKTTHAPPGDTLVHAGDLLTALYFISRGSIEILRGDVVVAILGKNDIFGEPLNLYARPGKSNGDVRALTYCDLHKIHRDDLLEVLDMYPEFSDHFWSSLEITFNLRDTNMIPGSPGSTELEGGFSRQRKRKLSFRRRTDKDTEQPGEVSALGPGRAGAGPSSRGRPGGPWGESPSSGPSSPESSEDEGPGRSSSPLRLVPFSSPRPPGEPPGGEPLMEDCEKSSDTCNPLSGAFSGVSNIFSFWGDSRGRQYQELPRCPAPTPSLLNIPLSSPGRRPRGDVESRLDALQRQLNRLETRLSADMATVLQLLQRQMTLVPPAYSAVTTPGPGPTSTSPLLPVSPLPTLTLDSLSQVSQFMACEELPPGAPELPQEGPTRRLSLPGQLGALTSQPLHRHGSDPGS
# Protocol: Preparation of test solution: the solution of test compound 3-16M was subjected to conventional ultrasound and oscillation to ensure complete dissolution of the compound.
# Cell culture: the cell lines were derived from HEK-293 cells which overexpressed hERG potassium channel. The cells were cultured in a 5% CO2 incubator at 37°. When a cell density reached 80% of a culture dish, the cells were pre-washed with a phosphate buffer solution (PBS), and then digested with trypsin/EDTA, and a cell culture medium was added to stop digestion. The cells were gently blown with a pipette and transferred to a centrifuge tube, centrifuged at 1000 rpm, the supernatant was poured out, and then the cell culture medium was added. The cells were gently blown and mixed evenly, then transferred to a culture dish for subculture, or the cells were dripped on a round slide and placed in a culture dish for the cells to adhere to the wall for test.
# The hERG IC50 value of the compound calculated by electrophysiology manual patch clamp system test was as follows: […]
# [2] = Two-week repeated dosing safety test; assay type: in vivo; conditions: SD rats, 400 mg/kg oral gavage once a day, 14 days
# Protocol: Samples for testing: compound 3-29; compound 3-16M; and compound 3-32.
# Animal species and number: SD rats; 6 rats per group (half male and half female).
# (§5) Mode of administration: oral gavage.
# Animal grouping and administration dose: solvent blank group and compound 3-29 group (400 mg/kg); compound 3-16M group (400 mg/kg); and compound 3-32 group (400 mg/kg).
# Administration frequency: once a day, and administration for 14 days.
# After administration, a toxic reaction was observed by cages for 4 hours, and detailed clinical observation was made on animals with obvious abnormal performances. General clinical observation included twice a day during the duration of test (once in the morning and once in the afternoon). Death, morbidity, respiration, secretion, faeces, diet, drinking water, and other conditions were observed and weight changes of the rats during administration were recorded. Detailed clinical observations included but were not limited to behavioral activity, skin, coat, eyes, ears, nose, abdomen, external genitals, anus, extremities, feet, and respiration. After the administration, the animals in each group were euthanized, and all the animals were dissected and observed grossly.
# MIA PaCa-2 cells = test: Cell proliferation inhibitory activity, MIA PaCa-2 (CellTiter-Glo); assay type: cell-based
# Protocol: as §1, with “MIA PaCa-2” for “NCI-H358”, “DMEM” for “RPMI 1640”
# [3] = Preliminary safety test of compounds, 3-day oral gavage; conditions: mouse, in vivo, Balb/c, tentatively suggested, read-out: maximum tolerated dose
# Protocol: Samples for testing: compound 3-2M and compound 3-6M.
# Animal species and number: Balb/c; 3 animals per group.
# as §5
# Animal grouping and administration dose: solvent blank group and compound 3-2M group (400 mg/kg, 800 mg/kg); compound 3-6M group (400 mg/kg, 800 mg/kg).
# Administration frequency: once a day, and administration for 3 days.
# [4] = test system: MIA-paca-2 cells subcutaneous transplanted tumor; test: Pharmacodynamic test of CDX model in nude mice; assay type: in vivo; conditions: 10 mg/kg, QD×15 days
# Protocol: Animal species and number: Balb/c Nude.
# Test groups: blank solvent control group; compound 3-2M (10 mg/kg, QD×15 days), and compound 3-6M (10 mg/kg, QD×15 days).
# Animal model establishment: MIA-paca-2 cells were cultured in vitro and inoculated subcutaneously on the right side of the back of nude mice, and the tumor-bearing nude mice were randomly grouped. Subsequently, each group of animals was administered and the day of the first administration was defined as day 1 of the test.
# as §2
# as §3, with “but” for “but is”
# as §4, with “diameter×short” for “diameter× short”
# [5] = Analysis of therapeutic safety window; conditions: in vivo, oral, 3 days
# [6] = test system: Langendorff isolated perfused heart; test: In vitro isolated heart perfusion test (Langendorff); design: species or system Guinea pig; conditions: 3.3 μM
# From the text: Test method: influences of Langendorff isolated perfused heart test compounds on electrocardiogram, wherein the test method used in this test was as follows: [table] Test compounds: compound 3-2M and the compound in Example 41 of patent WO2018217651A1 (i.e., AMG510).
Structure (SMILES),cell proliferation inhibitory activity against KRAS G12C mutant cells NCI-H358 (in words) (NCI-H358 cells),"IC50 (NCI-H358 cells; Homo sapiens, NCI-H358, 72 h) [nM]",inhibition of subcutaneous transplanted tumor growth of lung cancer NCI-H358 cells in nude mice (in words) [1],Tumor suppression ratio (%) [1],"cell proliferation inhibitory activity against NCI-H358, 3D model (in words) (NCI-H358)",IC50 (NCI-H358) [nM],IC50 (hERG potassium channel; HEK-293 cells overexpressing hERG) [nM],"IC50 (hERG potassium channel; human, HEK-293 cells overexpressing hERG potassium channel, test concentration range) [nM]","general observation: water intake, feeding, activity, body weight [2]",cell proliferation inhibitory activity against KRAS G12C mutant cells MIA PaCa-2 (in words) (MIA PaCa-2 cells),"IC50 (MIA PaCa-2 cells; Homo sapiens, MIA PaCa-2 cells, 72 hours) [nM]","cell proliferation inhibitory activity, R-configuration compared with corresponding S-configuration compound (in words) (NCI-H358 cells)",MTD at 3 days [3] [mg/kg],inhibition of subcutaneous transplanted tumor growth of pancreatic cancer MIA-paca-2 cells in nude mice (in words) [4],"toxicity during administration in CDX test (food and water intake, activities, weight) [4]",therapeutic safety window: ratio of toxic dose to onset dose [5],"cell proliferation inhibitory activity against H358, R-configuration relative to S-configuration compound (fold) (NCI-H358 cells; 3-2M versus 3-2P)",IC50 (NCI-H358 cells) [nM],effect on the heart rate of the isolated heart (in words) [6],HR (heart rate) change % ([6]; Guinea pig isolated heart)
"[2H]C(=O)c1ccccc1-c1nc2c(cc1Cl)c(N1CCN(C(=O)C=C)C[C@@H]1C)nc(=O)n2-c1c(C)ccnc1C(C)C (atropisomer, axis not shown) [Compound 3-16M]",significant cell proliferation inhibitory activities,≤ 50,significant inhibitory effects,++++ (“++++” represents that the tumor suppression ratio is greater than 140%),significant cell proliferation inhibitory activities,1.1,> 100000,> 100000,no obvious abnormal performance,–,–,–,–,–,–,–,–,–,–,–
"C=CC(=O)N1CCN(c2nc(=O)n(-c3c(C)ccnc3C(C)C)c3nc(-c4c(F)cccc4C=O)c(Cl)cc23)[C@@H](C)C1 (single isomer, unassigned) [Compound 3-6M]",significant cell proliferation inhibitory activities,≤ 50,–,–,–,–,–,–,–,significant cell proliferation inhibitory activities,< 50,significantly better than that of the corresponding compound 3-6P,> 800,significant inhibition of subcutaneous transplanted tumor growth,showed no toxicity,greater than 80 times,–,–,–,–
C=CC(=O)N1CCN(c2nc(=O)n(-c3c(C)ccnc3C(C)C)c3nc(-c4ccccc4C=O)c(Cl)cc23)[C@@H](C)C1 [Compound 3-2M],–,–,significant inhibitory effects,++++ (“++++” represents that the tumor suppression ratio is greater than 140%),significant cell proliferation inhibitory activities,1.8,–,–,–,–,–,significantly better than that of the corresponding compound 3-2P,> 800,significant inhibition of subcutaneous transplanted tumor growth,showed no toxicity,greater than 80 times,more than five times,≤ 50,no obvious effect on the heart rate,A (“A” represents that the heart rate decreases by less than 5%)
